Reference: US8802597B2, “Herbicidal pyrimidines” (E I du Pont de Nemours and Company, priority 2003, dated 2014)

Tests used:
Test in all cases: Test C pre/postemergence
Assay type in all cases: in vivo
[1] = tested on: velvetleaf (Abutilon theophrasti); conditions: for Velvetleaf plant response rating: scale 0 to 100 (0 no effect, 100 complete control)
Procedure, shortened: (§1)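 Injury scored visually 12–14 days after application on 0–100 scale (100 = complete control), relative to controls. Compounds, formulated with surfactant in non-phytotoxic solvent, applied to soil at planting (pre) or to 1- to 4-leaf plants 2–18 cm tall (post) in greenhouse.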

soybean (Glycine max) = conditions: for Soybean plant response rating: scale 0 to 100 (0 no effect, 100 complete control)
Procedure, shortened: as §1

[2] = tested on: giant foxtail (Setaria faberii); conditions: for Foxtail, Giant plant response rating: scale 0 to 100 (0 no effect, 100 complete control)
Procedure, shortened: as §1

[3] = tested on: yellow nutsedge (Cyperus esculentus); conditions: for Nutsedge, Yellow plant response rating: scale 0 to 100 (0 no effect, 100 complete control)
Procedure, shortened: as §1

[4] = tested on: goosegrass (Eleusine indica); conditions: for Goosegrass plant response rating: scale 0 to 100 (0 no effect, 100 complete control)
Procedure, shortened: as §1

[5] = tested on: woolly cupgrass (Eriochloa villosa); conditions: for Cupgrass, Woolly plant response rating: scale 0 to 100 (0 no effect, 100 complete control)
Procedure, shortened: as §1

[6] = tested on: common ragweed (Ambrosia elatior); conditions: for Ragweed plant response rating: scale 0 to 100 (0 no effect, 100 complete control)
Procedure, shortened: as §1

[7] = tested on: lambsquarters (Chenopodium album); conditions: for Lambsquarters plant response rating: scale 0 to 100 (0 no effect, 100 complete control)
Procedure, shortened: as §1

[8] = tested on: bermudagrass (Cynodon dactylon); conditions: for Bermudagrass plant response rating: scale 0 to 100 (0 no effect, 100 complete control)
Procedure, shortened: as §1

[9] = tested on: morningglory (Ipomoea coccinea); conditions: for Morningglory plant response rating: scale 0 to 100 (0 no effect, 100 complete control)
Procedure, shortened: as §1

[10] = tested on: Surinam grass (Brachiaria decumbens); conditions: for Surinam Grass plant response rating: scale 0 to 100 (0 no effect, 100 complete control)
Procedure, shortened: as §1

[11] = tested on: eastern black nightshade (Solanum ptycanthum); conditions: Preemergence
Procedure, shortened: as §1

[12] = Postemergence, 250 g ai/ha, scale 0 to 100
[13] = Postemergence, 500 g ai/ha, scale 0 to 100
[14] = Preemergence, 62 g ai/ha, scale 0 to 100, 0 no effect, 100 complete control
[15] = Preemergence, 125 g ai/ha, scale 0 to 100
[16] = Preemergence, 250 g ai/ha, scale 0 to 100
[17] = Preemergence, 500 g ai/ha, scale 0 to 100
[18] = 62 g ai/ha, scale 0 to 100, 0 no effect, 100 complete control

SMILES: Nc1nc(C2CC2)nc(C=NO)c1Br [Compound 27]
- Velvetleaf plant response rating ([1]; Postemergence, 62 g ai/ha): 0
- Velvetleaf plant response rating ([1]; Postemergence, 125 g ai/ha): 0
- Plant response rating, Velvetleaf [1, 12]: 0
- Plant response rating, Velvetleaf [1, 13]: 30
- Plant response rating, Velvetleaf [1, 14]: 0
- Plant response rating, Velvetleaf [1, 15]: 0
- Plant response rating, Velvetleaf [1, 16]: 50
- Plant response rating, Velvetleaf [1, 17]: 70
- Soybean plant response rating (soybean (Glycine max); Postemergence, 62 g ai/ha): 30
- Soybean plant response rating (soybean (Glycine max); Postemergence, 125 g ai/ha): 45
- Plant response rating, Soybean (soybean (Glycine max); [12]): 85
- Plant response rating, Soybean (soybean (Glycine max); [13]): 95
- Plant response rating, Soybean (soybean (Glycine max); [14]): 0
- Plant response rating, Soybean (soybean (Glycine max); [15]): 0
- Plant response rating, Soybean (soybean (Glycine max); [16]): 20
- Plant response rating, Soybean (soybean (Glycine max); [17]): 75
- Foxtail, Giant plant response rating ([2]; Postemergence, 62 g ai/ha): 0
- Foxtail, Giant plant response rating ([2]; Postemergence, 125 g ai/ha): 0
- Plant response rating, Foxtail, Giant [2, 12]: 0
- Plant response rating, Foxtail, Giant [2, 13]: 0
- Plant response rating, Foxtail, Giant [2, 14]: 0
- Plant response rating, Foxtail, Giant [2, 15]: 0
- Plant response rating, Foxtail, Giant [2, 16]: 0
- Plant response rating, Foxtail, Giant [2, 17]: 20
- Nutsedge, Yellow plant response rating ([3]; Postemergence, 62 g ai/ha): 0
- Nutsedge, Yellow plant response rating ([3]; Postemergence, 125 g ai/ha): 0
- Plant response rating, Nutsedge, Yellow [3, 12]: 0
- Plant response rating, Nutsedge, Yellow [3, 13]: 0
- Plant response rating, Nutsedge, Yellow [3, 14]: 0
- Plant response rating, Nutsedge, Yellow [3, 15]: 0
- Plant response rating, Nutsedge, Yellow [3, 16]: 0
- Plant response rating, Nutsedge, Yellow [3, 17]: 20
- Goosegrass plant response rating ([4]; Postemergence, 62 g ai/ha): 0
- Goosegrass plant response rating ([4]; Postemergence, 125 g ai/ha): 0
- Plant response rating, Goosegrass [4, 12]: 0
- Plant response rating, Goosegrass [4, 13]: 0
- Plant response rating, Goosegrass [4, 14]: 0
- Plant response rating, Goosegrass [4, 15]: 0
- Plant response rating, Goosegrass [4, 16]: 0
- Plant response rating, Goosegrass [4, 17]: 20
- Cupgrass, Woolly plant response rating ([5]; Postemergence, 62 g ai/ha): 0
- Cupgrass, Woolly plant response rating ([5]; Postemergence, 125 g ai/ha): 0
- Plant response rating, Cupgrass, Woolly [5, 12]: 0
- Plant response rating, Cupgrass, Woolly [5, 13]: 0
- Plant response rating, Cupgrass, Woolly [5, 14]: 0
- Plant response rating, Cupgrass, Woolly [5, 15]: 0
- Plant response rating, Cupgrass, Woolly [5, 16]: 10
- Plant response rating, Cupgrass, Woolly [5, 17]: 15
- Ragweed plant response rating ([6]; Postemergence, 62 g ai/ha): 5
- Ragweed plant response rating ([6]; Postemergence, 125 g ai/ha): 20
- Plant response rating, Ragweed [6, 12]: 40
- Plant response rating, Ragweed [6, 13]: 50
- Plant response rating, Ragweed [6, 14]: 20
- Plant response rating, Ragweed [6, 15]: 65
- Plant response rating, Ragweed [6, 16]: 85
- Plant response rating, Ragweed [6, 17]: 95
- Lambsquarters plant response rating ([7]; Postemergence, 62 g ai/ha): 20
- Lambsquarters plant response rating ([7]; Postemergence, 125 g ai/ha): 20
- Plant response rating, Lambsquarters [7, 12]: 25
- Plant response rating, Lambsquarters [7, 13]: 50
- Plant response rating, Lambsquarters [7, 15]: 40
- Plant response rating, Lambsquarters [7, 16]: 90
- Plant response rating, Lambsquarters [7, 17]: 100
- Bermudagrass plant response rating ([8]; Postemergence, 62 g ai/ha): 0
- Bermudagrass plant response rating ([8]; Postemergence, 125 g ai/ha): 0
- Plant response rating, Bermudagrass [8, 12]: 0
- Plant response rating, Bermudagrass [8, 13]: 30
- Plant response rating, Bermudagrass [8, 14]: 0
- Plant response rating, Bermudagrass [8, 15]: 0
- Plant response rating, Bermudagrass [8, 16]: 0
- Plant response rating, Bermudagrass [8, 17]: 0
- Morningglory plant response rating ([9]; Postemergence, 62 g ai/ha): 20
- Morningglory plant response rating ([9]; Postemergence, 125 g ai/ha): 85
- Plant response rating, Morningglory [9, 12]: 85
- Plant response rating, Morningglory [9, 13]: 85
- Plant response rating, Morningglory [9, 14]: 0
- Plant response rating, Morningglory [9, 15]: 70
- Plant response rating, Morningglory [9, 16]: 95
- Plant response rating, Morningglory [9, 17]: 100
- Surinam Grass plant response rating ([10]; Postemergence, 62 g ai/ha): 0
- Surinam Grass plant response rating ([10]; Postemergence, 125 g ai/ha): 0
- Plant response rating, Surinam Grass [10, 12]: 0
- Plant response rating, Surinam Grass [10, 13]: 0
- Plant response rating, Surinam Grass [10, 14]: 0
- Plant response rating, Surinam Grass [10, 15]: 0
- Plant response rating, Surinam Grass [10, 16]: 20
- Plant response rating, Surinam Grass [10, 17]: 30
- Plant response rating, Nightshade [11, 18]: 0
- Plant response rating, Nightshade ([11]; 125 g ai/ha, scale 0 to 100): 70
- Plant response rating, Nightshade ([11]; 250 g ai/ha, scale 0 to 100): 100
- Plant response rating, Nightshade ([11]; 500 g ai/ha, scale 0 to 100): 100

SMILES: COC(=O)c1nc(C2CC2C)nc(N)c1Br (stereo not drawn) [Compound 28]
- Velvetleaf plant response rating ([1]; Postemergence, 62 g ai/ha): 45
- Velvetleaf plant response rating ([1]; Postemergence, 125 g ai/ha): 50
- Plant response rating, Velvetleaf [1, 12]: 70
- Plant response rating, Velvetleaf [1, 13]: 75
- Plant response rating, Velvetleaf [1, 14]: 50
- Plant response rating, Velvetleaf [1, 15]: 55
- Plant response rating, Velvetleaf [1, 16]: 95
- Plant response rating, Velvetleaf [1, 17]: 100
- Soybean plant response rating (soybean (Glycine max); Postemergence, 62 g ai/ha): 75
- Soybean plant response rating (soybean (Glycine max); Postemergence, 125 g ai/ha): 85
- Plant response rating, Soybean (soybean (Glycine max); [12]): 95
- Plant response rating, Soybean (soybean (Glycine max); [13]): 95
- Plant response rating, Soybean (soybean (Glycine max); [14]): 0
- Plant response rating, Soybean (soybean (Glycine max); [15]): 45
- Plant response rating, Soybean (soybean (Glycine max); [16]): 65
- Plant response rating, Soybean (soybean (Glycine max); [17]): 90
- Foxtail, Giant plant response rating ([2]; Postemergence, 62 g ai/ha): 0
- Foxtail, Giant plant response rating ([2]; Postemergence, 125 g ai/ha): 0
- Plant response rating, Foxtail, Giant [2, 12]: 0
- Plant response rating, Foxtail, Giant [2, 13]: 15
- Plant response rating, Foxtail, Giant [2, 14]: 0
- Plant response rating, Foxtail, Giant [2, 15]: 0
- Plant response rating, Foxtail, Giant [2, 16]: 0
- Plant response rating, Foxtail, Giant [2, 17]: 0
- Nutsedge, Yellow plant response rating ([3]; Postemergence, 62 g ai/ha): 0
- Nutsedge, Yellow plant response rating ([3]; Postemergence, 125 g ai/ha): 0
- Plant response rating, Nutsedge, Yellow [3, 12]: 0
- Plant response rating, Nutsedge, Yellow [3, 13]: 0
- Plant response rating, Nutsedge, Yellow [3, 14]: 0
- Plant response rating, Nutsedge, Yellow [3, 15]: 0
- Plant response rating, Nutsedge, Yellow [3, 16]: 0
- Plant response rating, Nutsedge, Yellow [3, 17]: 0
- Goosegrass plant response rating ([4]; Postemergence, 62 g ai/ha): 0
- Goosegrass plant response rating ([4]; Postemergence, 125 g ai/ha): 0
- Plant response rating, Goosegrass [4, 12]: 0
- Plant response rating, Goosegrass [4, 13]: 15
- Plant response rating, Goosegrass [4, 14]: 0
- Plant response rating, Goosegrass [4, 15]: 0
- Plant response rating, Goosegrass [4, 16]: 0
- Plant response rating, Goosegrass [4, 17]: 20
- Cupgrass, Woolly plant response rating ([5]; Postemergence, 62 g ai/ha): 0
- Cupgrass, Woolly plant response rating ([5]; Postemergence, 125 g ai/ha): 0
- Plant response rating, Cupgrass, Woolly [5, 12]: 0
- Plant response rating, Cupgrass, Woolly [5, 13]: 0
- Plant response rating, Cupgrass, Woolly [5, 14]: 0
- Plant response rating, Cupgrass, Woolly [5, 15]: 0
- Plant response rating, Cupgrass, Woolly [5, 16]: 0
- Plant response rating, Cupgrass, Woolly [5, 17]: 0
- Ragweed plant response rating ([6]; Postemergence, 62 g ai/ha): 65
- Ragweed plant response rating ([6]; Postemergence, 125 g ai/ha): 80
- Plant response rating, Ragweed [6, 12]: 90
- Plant response rating, Ragweed [6, 13]: 95
- Plant response rating, Ragweed [6, 14]: 65
- Plant response rating, Ragweed [6, 15]: 95
- Plant response rating, Ragweed [6, 16]: 100
- Plant response rating, Ragweed [6, 17]: 100
- Lambsquarters plant response rating ([7]; Postemergence, 62 g ai/ha): 60
- Lambsquarters plant response rating ([7]; Postemergence, 125 g ai/ha): 75
- Plant response rating, Lambsquarters [7, 12]: 85
- Plant response rating, Lambsquarters [7, 13]: 95
- Plant response rating, Lambsquarters [7, 14]: 95
- Plant response rating, Lambsquarters [7, 15]: 100
- Plant response rating, Lambsquarters [7, 16]: 100
- Plant response rating, Lambsquarters [7, 17]: 100
- Bermudagrass plant response rating ([8]; Postemergence, 62 g ai/ha): 0
- Bermudagrass plant response rating ([8]; Postemergence, 125 g ai/ha): 0
- Plant response rating, Bermudagrass [8, 12]: 0
- Plant response rating, Bermudagrass [8, 13]: 0
- Plant response rating, Bermudagrass [8, 14]: 0
- Plant response rating, Bermudagrass [8, 15]: 20
- Plant response rating, Bermudagrass [8, 16]: 30
- Plant response rating, Bermudagrass [8, 17]: 35
- Morningglory plant response rating ([9]; Postemergence, 62 g ai/ha): 80
- Morningglory plant response rating ([9]; Postemergence, 125 g ai/ha): 95
- Plant response rating, Morningglory [9, 12]: 95
- Plant response rating, Morningglory [9, 13]: 95
- Plant response rating, Morningglory [9, 14]: 100
- Plant response rating, Morningglory [9, 15]: 100
- Plant response rating, Morningglory [9, 16]: 100
- Plant response rating, Morningglory [9, 17]: 100
- Surinam Grass plant response rating ([10]; Postemergence, 62 g ai/ha): 0
- Surinam Grass plant response rating ([10]; Postemergence, 125 g ai/ha): 0
- Plant response rating, Surinam Grass [10, 12]: 0
- Plant response rating, Surinam Grass [10, 13]: 0
- Plant response rating, Surinam Grass [10, 14]: 0
- Plant response rating, Surinam Grass [10, 15]: 0
- Plant response rating, Surinam Grass [10, 16]: 0
- Plant response rating, Surinam Grass [10, 17]: 0
- Plant response rating, Nightshade [11, 18]: 100
- Plant response rating, Nightshade ([11]; 125 g ai/ha, scale 0 to 100): 100
- Plant response rating, Nightshade ([11]; 250 g ai/ha, scale 0 to 100): 100
- Plant response rating, Nightshade ([11]; 500 g ai/ha, scale 0 to 100): 100
